Data on three molecules can be found in ChEMBL document CHEMBL5727147, “Pharmaceutical compounds” (2018).

A value given as a limit tells only on which side of the number the result lay.

For this assay, the target named is T1, Serine/threonine-protein kinase Chk1 (Homo sapiens, UniProt O14757).
T1 sequence (O14757 whole entry): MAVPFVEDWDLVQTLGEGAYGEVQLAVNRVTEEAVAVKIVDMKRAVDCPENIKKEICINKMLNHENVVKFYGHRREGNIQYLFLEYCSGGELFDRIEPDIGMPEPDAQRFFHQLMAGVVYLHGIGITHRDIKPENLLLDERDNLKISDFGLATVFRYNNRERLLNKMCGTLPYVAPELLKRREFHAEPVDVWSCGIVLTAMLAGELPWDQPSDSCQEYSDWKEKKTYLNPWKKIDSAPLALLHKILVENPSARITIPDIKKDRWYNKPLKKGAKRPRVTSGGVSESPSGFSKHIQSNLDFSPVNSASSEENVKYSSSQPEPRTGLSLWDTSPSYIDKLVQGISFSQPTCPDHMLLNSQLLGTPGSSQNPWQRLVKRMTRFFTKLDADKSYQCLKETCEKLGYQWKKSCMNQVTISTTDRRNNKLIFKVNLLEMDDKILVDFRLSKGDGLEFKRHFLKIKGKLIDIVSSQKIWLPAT
The experiment in a line: Kinase Inhibiting Activity Assay: Chk-1 Kinase Inhibiting ActivityThe compounds of the invention were tested for activity against Chk-1 kinase using the materials and protocols set out below.Reaction Buffer:Base Reaction buffer: 20 mM Hepes (pH 7.5), 10 mM MgCl2, 1 mM EGTA, 0.02% Brij35, 0.02 mg/ml BSA, 0.1 mM Na3VO4, 2 mM DTT, 1% DMSO*Required cofactors are added individually to each kinase reactionReaction Procedure:(i) Prepare indicated substrate in freshly prepared Base Reaction Buffer(ii) Deliver any required cofactors to the substrate solution above(iii) Deliver indicated kinase into the substrate solution and gently mix(iv) Deliver compounds in DMSO into the kinase reaction mixture(v) Deliver 33P-ATP (specific activity 0.01 μCi/μl final) into the reaction mixture to initiate the reaction.(vi) Incubate kinase reaction for 120 minutes at room temperature(vii) Reactions are spotted onto P81 ion exchange paper (Whatman #3698-915)(viii) Wash filters extensively in 0.1% phosphoric acid.(ix) Dry filters and measure counts in scintillation counterKinase Information:CHK-1 Genbank Accession # AF016582Recombinant full length construct, N-terminal GST tagged, purified from insect cells.No special measures were taken to activate this kinase.Final concentration in assay=0.5 nMSubstrate: CHKtidePeptide sequence: [[…]]Final concentration in assay=20 μM.
For the molecule `COc1cc(CNC(=O)C2CC2)ccc1-c1cc(Nc2cnc(C#N)cn2)n[nH]1`, the IC50 came to 0.59 nM.

For `COc1cc(C2CCCCN2C)ccc1-c1cc(Nc2cnc(C#N)cn2)n[nH]1` (stereo not drawn), the IC50 stood at 0.51 nM.

For `COc1cc(OCc2cocn2)ccc1-c1cc(Nc2cnc(C#N)cn2)n[nH]1`, the IC50 was less than 1 nM.
